Reference: patent US9988635B2, “Modulation of growth hormone receptor expression and insulin-like growth factor expression” (Antisense Therapeutics Limited, priority 2003, dated 2018)
In the oligonucleotide strings, read from the 5' end, every base follows the letter of its sugar. An asterisk marks phosphorothioate; unmarked linkages are phosphodiester. Other units and linkages are bracketed, terminal groups are in braces. A string of capitals states the bases alone. e = 2'-O-(2-methoxyethyl) (MOE); [5mC] = 5-methylcytosine; d = 2'-deoxy (DNA)

System: human growth hormone receptor mRNA
Assay: Inhibition of human growth hormone receptor mRNA levels in MCF7 cells, quantitative real-time PCR
Format: cell-based
Parameters: concentration or dose not given beside the values
Conditions: averages from three experiments
Experimental: The human breast carcinoma cell line MCF-7 was obtained from the American Type Culture Collection (Manassas, Va.). MCF-7 cells were routinely cultured in DMEM low glucose (Gibco/Life Technologies, Gaithersburg, Md.) supplemented with 10% fetal calf serum (Gibco/Life Technologies, Gaithersburg, Md.). Cells were routinely passaged by trypsinization and dilution when they reached 90% confluence. Cells were seeded into 96-well plates (Falcon-Primaria #3872) at a density of 7000 cells/well for use in RT-PCR analysis.
When cells reached 65-75% confluency, they were treated with oligonucleotide. For cells grown in 96-well plates, wells were washed once with 100 μL OPTI-MEM™-1 reduced-serum medium (Invitrogen Corporation, Carlsbad, Calif.) and then treated with 130 μL of OPTI-MEM™-1 containing 3.75 μg/mL LIPOFECTIN™ (Invitrogen Corporation, Carlsbad, Calif.) and the desired concentration of oligonucleotide. Cells are treated and data are obtained in triplicate. After 4-7 hours of treatment at 37° C., the medium was replaced with fresh medium. Cells were harvested 16-24 hours after oligonucleotide treatment.
Total RNA was isolated using an RNEASY 96™ kit and buffers purchased from Qiagen Inc. (Valencia, Calif.) following the manufacturer's recommended procedures. Briefly, for cells grown on 96-well plates, growth medium was removed from the cells and each well was washed with 200 μL cold PBS. 150 μL Buffer RLT was added to each well and the plate vigorously agitated for 20 seconds. 150 μL of 70% ethanol was then added to each well and the contents mixed by pipetting three times up and down. The samples were then transferred to the RNEASY 96™ well plate attached to a QIAVAC™ manifold fitted with a waste collection tray and attached to a vacuum source. Vacuum was applied for 1 minute. 500 μL of Buffer RW1 was added to each well of the RNEASY 96™ plate and incubated for 15 minutes and the vacuum was again applied for 1 minute. An additional 500 μL of Buffer RW1 was added to each well of the RNEASY 96™ plate and the vacuum was applied for 2 minutes. 1 mL of Buffer RPE was then added to each well of the RNEASY 96™ plate and the vacuum applied for a period of 90 seconds. The Buffer RPE wash was then repeated and the vacuum was applied for an additional 3 minutes. The plate was then removed from the QIAVAC™ manifold and blotted dry on paper towels. The plate was then re-attached to the QIAVAC™ manifold fitted with a collection tube rack containing 1.2 mL collection tubes. RNA was then eluted by pipetting 140 μL of RNAse free water into each well, incubating 1 minute, and then applying the vacuum for 3 minutes.
Quantitation of growth hormone receptor mRNA levels was accomplished by real-time quantitative PCR using the ABI PRISM™ 7600, 7700, or 7900 Sequence Detection System (PE-Applied Biosystems, Foster City, Calif.) according to manufacturer's instructions. This is a closed-tube, non-gel-based, fluorescence detection system which allows high-throughput quantitation of polymerase chain reaction (PCR) products in real-time. As opposed to standard PCR in which amplification products are quantitated after the PCR is completed, products in real-time quantitative PCR are quantitated as they accumulate. This is accomplished by including in the PCR reaction an oligonucleotide probe that anneals specifically between the forward and reverse PCR primers, and contains two fluorescent dyes. A reporter dye (e.g., FAM or JOE, obtained from either PE-Applied Biosystems, Foster City, Calif., Operon Technologies Inc., Alameda, Calif. or Integrated DNA Technologies Inc., Coralville, Iowa) is attached to the 5′ end of the probe and a quencher dye (e.g., TAMRA, obtained from either PE-Applied Biosystems, Foster City, Calif., Operon Technologies Inc., Alameda, Calif. or Integrated DNA Technologies Inc., Coralville, Iowa) is attached to the 3′ end of the probe. When the probe and dyes are intact, reporter dye emission is quenched by the proximity of the 3′ quencher dye. […]

Compared with “227489 (antisense eT*eG*eT*eT*e[5mC]*dA*dG*dT*dT*dG*dG*dT*d[5mC]*dT*dG*eT*eG*e[5mC]*eT*e[5mC]) [compound 227489]”, “272303 (antisense e[5mC]*e[5mC]*eA*eG*eA*dG*dA*dT*d[5mC]*d[5mC]*dA*dT*dA*d[5mC]*d[5mC]*eT*eG*eT*eA*eG) [compound 272303]” is lower in “% INHIB of human growth hormone receptor mRNA levels” value (“% INHIB” below): 75% for the first, 55% for the second.

First: 272327 (antisense eG*eG*eA*e[5mC]*eA*dT*d[5mC]*d[5mC]*d[5mC]*dT*dG*d[5mC]*d[5mC]*dT*dT*eA*eT*eT*e[5mC]*eT) [compound 272327]
Second: 272326 (antisense eA*e[5mC]*eT*e[5mC]*eA*dG*d[5mC]*dT*d[5mC]*d[5mC]*dT*dT*d[5mC]*dA*dG*eT*eA*eG*eG*eA) [compound 272326]
The “% INHIB” value of the first is lower: 60% for the first, 77% for the second.

Going from “272361 (antisense eA*eT*eT*eT*eT*d[5mC]*d[5mC]*dT*dT*d[5mC]*d[5mC]*dT*dA*dG*dA*eA*eA*eA*eT*eA) [compound 272361]” to “227501 (antisense eG*e[5mC]*eT*eA*eT*dT*dT*dT*dT*dG*dG*d[5mC]*dT*dA*dT*eA*eG*eA*eA*eA) [compound 227501]”, the “% INHIB” value rises from 10% to 64%.

First: 272342 (antisense eT*eA*eG*eT*eG*dA*dG*dA*dA*dA*dG*dA*dA*dA*dG*eT*eT*eT*e[5mC]*eT) [compound 272342]
Second: 272325 (antisense eA*eA*eG*eG*e[5mC]*dA*dT*dA*dA*dG*dA*dG*dA*dT*d[5mC]*eT*eG*e[5mC]*eT*eT) [compound 272325]
The “% INHIB” value of the first is lower: 45% for the first, 66% for the second.

First: 227484 (antisense eT*eG*eG*eT*eA*dA*dG*dG*d[5mC]*dT*dT*dT*d[5mC]*dT*dG*eT*eG*eG*eT*eG) [compound 227484]
Second: 227452 (antisense eT*e[5mC]*eA*eG*eG*dG*d[5mC]*dA*dT*dT*d[5mC]*dT*dT*dT*d[5mC]*e[5mC]*eA*eT*eT*e[5mC]) [compound 227452]
The “% INHIB” value of the first is lower: 63% for the first, 79% for the second.

Compared with “227481 (antisense eT*eG*eG*eT*eG*dA*dT*dG*dT*dA*dA*dA*dT*dG*dT*e[5mC]*e[5mC]*eT*e[5mC]*eT) [compound 227481]”, “272321 (antisense eA*eA*e[5mC]*e[5mC]*e[5mC]*dA*dA*dG*dA*dG*dT*d[5mC]*dA*dT*d[5mC]*eA*e[5mC]*eT*eG*eT) [compound 272321]” is higher in “% INHIB” value: 45% for the first, 64% for the second.

First: 272310 (antisense eT*eT*eT*e[5mC]*eA*dT*d[5mC]*d[5mC]*dA*d[5mC]*dT*dG*dT*dA*d[5mC]*e[5mC]*eA*e[5mC]*e[5mC]*eA) [compound 272310]
Second: 272314 (antisense eT*eA*eG*eG*eG*dT*d[5mC]*d[5mC]*dA*dT*d[5mC]*dA*dT*dT*dT*eT*e[5mC]*e[5mC]*eA*eT) [compound 272314]
The “% INHIB” value of the first is higher: 76% for the first, 56% for the second.

Compared with “272334 (antisense eA*eA*eG*eA*eA*dA*dG*dG*d[5mC]*dT*dA*dA*dG*dG*d[5mC]*eA*eT*eG*eA*eT) [compound 272334]”, “227468 (antisense eT*e[5mC]*eA*eT*e[5mC]*dA*dA*dT*dA*dT*d[5mC]*dT*dA*dG*d[5mC]*eT*e[5mC]*eA*eA*eT) [compound 227468]” is higher in “% INHIB” value: 61% for the first, 62% for the second.

Compared with “272345 (antisense e[5mC]*eA*eT*e[5mC]*eT*dA*dT*dT*dA*d[5mC]*dA*dA*dA*dT*dA*eA*e[5mC]*eA*eT*eG) [compound 272345]”, “272304 (antisense eT*eG*e[5mC]*eT*eA*dA*dG*dG*dA*dT*dA*dG*d[5mC]*dT*dG*e[5mC]*eT*eG*eT*eG) [compound 272304]” is higher in “% INHIB” value: 24% for the first, 48% for the second.

First: 272312 (antisense eG*eG*eG*eT*eG*dG*dA*dT*d[5mC]*dT*dG*dG*dT*dT*dG*e[5mC]*eA*e[5mC]*eT*eA) [compound 272312]
Second: 272359 (antisense eT*e[5mC]*e[5mC]*eA*eA*dA*dT*dA*dT*dT*d[5mC]*dT*dG*dG*dT*eA*e[5mC]*eT*eT*eT) [compound 272359]
The “% INHIB” value of the first is lower: 57% for the first, 72% for the second.

First: 272322 (antisense e[5mC]*eT*eG*eG*e[5mC]*dT*d[5mC]*dA*dT*d[5mC]*dA*dA*dT*dA*dT*e[5mC]*eT*eA*eG*e[5mC]) [compound 272322]
Second: 272336 (antisense e[5mC]*eA*eA*eT*e[5mC]*dA*d[5mC]*dT*dG*d[5mC]*dT*dA*d[5mC]*dT*dA*eA*eA*e[5mC]*eA*eG) [compound 272336]
The “% INHIB” value of the first is higher: 84% for the first, 69% for the second.

Compared with “272339 (antisense eG*eT*eT*eT*eT*dA*d[5mC]*dA*dT*dA*dT*d[5mC]*d[5mC]*dA*dA*eA*e[5mC]*eT*eA*eT) [compound 272339]”, “272302 (antisense eG*eA*eT*e[5mC]*e[5mC]*dA*dT*dA*d[5mC]*d[5mC]*dT*dG*dT*dA*dG*eG*eA*e[5mC]*e[5mC]*eT) [compound 272302]” is lower in “% INHIB” value: 72% for the first, 60% for the second.

First: 272317 (antisense eA*eG*e[5mC]*e[5mC]*e[5mC]*dA*dA*dA*dT*dA*dT*dT*d[5mC]*d[5mC]*dA*eA*eA*eG*eA*eT) [compound 272317]
Second: 272350 (antisense eA*eG*eG*e[5mC]*eT*dG*dT*dT*dG*dT*dG*dA*dA*dA*dT*eA*eG*eT*eA*eA) [compound 272350]
The “% INHIB” value of the first is lower: 65% for the first, 67% for the second.

Compared with “272353 (antisense eA*eT*eA*eA*eT*dG*dG*d[5mC]*dT*dT*dA*dT*dG*dT*dG*eG*e[5mC]*e[5mC]*eA*e[5mC]) [compound 272353]”, “272324 (antisense eT*eA*eT*eG*eT*d[5mC]*dA*dT*dT*dG*dG*d[5mC]*dA*dT*dT*eG*eA*eA*eA*eT) [compound 272324]” is lower in “% INHIB” value: 72% for the first, 53% for the second.

Compared with “272333 (antisense eG*eT*eG*e[5mC]*eT*d[5mC]*dA*d[5mC]*dA*dT*dA*dG*d[5mC]*d[5mC]*dA*e[5mC]*eA*eT*eG*eA) [compound 272333]”, “272340 (antisense e[5mC]*eA*eT*e[5mC]*eA*dA*d[5mC]*d[5mC]*dA*dA*dG*dA*dT*dT*dT*eG*eG*eT*eG*eA) [compound 272340]” is lower in “% INHIB” value: 72% for the first, 69% for the second.

Compared with “272307 (antisense eG*eT*eG*eA*eA*dT*dT*dT*dA*dG*dG*d[5mC]*dT*d[5mC]*d[5mC]*eT*eT*eA*eG*eA) [compound 272307]”, “227453 (antisense e[5mC]*eA*eT*eA*eA*dT*d[5mC]*dA*dG*dG*dG*d[5mC]*dA*dT*dT*e[5mC]*eT*eT*eT*e[5mC]) [compound 227453]” is lower in “% INHIB” value: 55% for the first, 52% for the second.

Compared with “272348 (antisense e[5mC]*eA*e[5mC]*eA*eG*d[5mC]*dT*dT*dT*dG*dA*dA*dT*dT*dG*eA*eA*eT*eT*eA) [compound 272348]”, “227499 (antisense eT*eA*eT*eA*eA*dA*dA*dG*dG*dG*d[5mC]*dT*dT*dT*dG*eT*eA*eA*eA*eA) [compound 227499]” is lower in “% INHIB” value: 57% for the first, 14% for the second.

In the case of “272347 (antisense eT*e[5mC]*eT*eA*e[5mC]*dA*d[5mC]*dT*dG*dA*dT*dG*dA*dT*dA*e[5mC]*eT*eT*eT*eA) [compound 272347]”, the “% INHIB” value was 62%.
